Test system in the first data set: not given
Test: not given
Conditions: not given
As usually defined, the melting point is the temperature, or range, at which the solid turns liquid. As for `C[C@@H](Nc1ncnc2[nH]c(-c3ccc(CN4CCN(C)CC4)cc3)cc12)c1ccccc1` [Example 1, {6-[4-(4-Methyl-piperazin-1-ylmethyl)-phenyl]-7H-pyrrolo[2,3-d]pyrimidin-4-yl}-((R)-1-phenyl-ethyl)-amine], the melting point fell in the range of 248 to 250 °C.
The same measure, in the same setting: the value for `CCN(CC)Cc1ccc(-c2cc3c(N[C@H](C)c4ccccc4)ncnc3[nH]2)cc1` [Example 2, [6-(4-Diethylaminomethyl-phenyl)-7H-pyrrolo[2,3-d]pyrimidin-4-yl]-((R)-1-phenyl-ethyl)-amine] was 246 to 248 °C; that for `C[C@@H](Nc1ncnc2[nH]c(-c3ccc(CN4CCCC4)cc3)cc12)c1ccccc1` [Example 4, ((R)-1-Phenyl-ethyl)-[6-(4-pyrrolidin-1-ylmethyl-phenyl)-7H-pyrrolo[2,3-d]pyrimidin-4-yl]-amine] was 254 to 256 °C.
On to `C[C@@H](Nc1ncnc2[nH]c(-c3ccc(CN(C)C)cc3)cc12)c1ccccc1` [Example 5, [6-(4-Dimethylaminomethyl-phenyl)-7H-pyrrolo[2,3-d]pyrimidin-4-yl]-((R)-1-phenyl-ethyl)-amine], for which the melting point fell in the range of 241 to 243 °C.
Turning to `C[C@@H](Nc1ncnc2[nH]c(-c3ccc(CN4CCCCC4)cc3)cc12)c1ccccc1` [Example 6, ((R)-1-Phenyl-ethyl)-[6-(4-piperidin-1-ylmethyl-phenyl)-7H-pyrrolo[2,3-d]pyrimidin-4-yl]-amine], the melting point lay in the range of 246 to 248 °C.
In the case of `C[C@@H](Nc1ncnc2[nH]c(-c3ccc(CN4CCOCC4)cc3)cc12)c1ccccc1` [Example 7, [6-(4-Morpholin-4-ylmethyl-phenyl)-7H-pyrrolo[2,3-d]pyrimidin-4-yl]-((R)-1-phenyl-ethyl)-amine], the melting point was in the range of 263 to 265 °C.
Turning to `CC1CN(Cc2ccc(-c3cc4c(N[C@H](C)c5ccccc5)ncnc4[nH]3)cc2)CC(C)N1` (stereo partly drawn) [Example 8, {6-[4-(3,5-Dimethyl-piperazin-1-ylmethyl)-phenyl]-7H-pyrrolo[2,3-d]pyrimidin-4-yl}-((R)-1-phenyl-ethyl)-amine], the melting point lay within 208 to 210 °C.
With `C[C@@H](Nc1ncnc2[nH]c(-c3ccc(CNCCN4CCOCC4)cc3)cc12)c1ccccc1` [Example 9, (6-{4-[(2-Morpholin-4-yl-ethylamino)-methyl]-phenyl}-7H-pyrrolo[2,3-d]pyrimidin-4-yl)-((R)-1-phenyl-ethyl)-amine], the melting point was 222 to 224 °C.
On the same count and under the same terms, the value for `C[C@@H](Nc1ncnc2[nH]c(-c3ccc(CNC4CCOCC4)cc3)cc12)c1ccccc1` [Example 10, ((R)-1-Phenyl-ethyl)-(6-{4-[(tetrahydro-pyran-4-ylamino)-methyl]-phenyl}-7H-pyrrolo[2,3-d]pyrimidin-4-yl)-amine] was 253 to 255 °C.

For the next data set, the system named is NSCLC. As to the kind of experiment: Treatment of a human patient suffering from NSCLC with PKI166. The format is in vivo. The conditions noted are these: 8 weeks, 450 mg/day except on day 2, 16 and 30, partial response = greater than or equal to 50% reduction in measurable or evaluable disease without progression. Here is the method: A human patient suffering from NSCLC is treated for a period of 8 weeks with 450 mg/day of PKI166 except on day 2, 16 and 30 on which days no drug is applied.
`C[C@@H](Nc1ncnc2[nH]c(-c3ccc(O)cc3)cc12)c1ccccc1` [PKI166, (R)-6-(4-hydroxy-phenyl)-4-[(1-phenyl-ethyl)-amino]-7H-pyrrolo[2,3-d]pyrimidine]: the “disease response observed after treatment” value is listed as “partial response”.

The next data set relates to renal cell cancer. As to the kind of experiment: Treatment of a human patient suffering from renal cell cancer with PKI166. It is filed as in vivo. The conditions noted are these: 16 weeks in 4 cycles of 600 mg daily for two weeks followed by 2 weeks without drug, stable disease = less than 50% decrease or less than 25% increase in measurable or evaluable disease. On the procedure:
A human patient suffering from renal cell cancer is treated for a period of 16 weeks in 4 cycles consisting of administration of 600 mg of PKI166 daily for two weeks followed by 2 weeks without administering the drug. […] A human patient suffering from renal cell cancer is treated for a period of 16 weeks with 400 mg of PKI166 on Monday, Wednesday and Friday of each week.
Turning to `C[C@@H](Nc1ncnc2[nH]c(-c3ccc(O)cc3)cc12)c1ccccc1` [PKI166, (R)-6-(4-hydroxy-phenyl)-4-[(1-phenyl-ethyl)-amino]-7H-pyrrolo[2,3-d]pyrimidine], the “disease response observed during treatment” value is “stable disease”.

Staying with this data set, now noted: 16 weeks, 400 mg on Monday, Wednesday and Friday of each week, stable disease = less than 50% decrease or less than 25% increase in measurable or evaluable disease.
For the compound `C[C@@H](Nc1ncnc2[nH]c(-c3ccc(O)cc3)cc12)c1ccccc1` [PKI166, (R)-6-(4-hydroxy-phenyl)-4-[(1-phenyl-ethyl)-amino]-7H-pyrrolo[2,3-d]pyrimidine], the “disease response observed during treatment” value is listed as “stable disease”.

For the origin of these results see patent US20050038048A1, “Use of 7h-pyrrollo{2,3-d}pyrimidine derivatives in the treatment of solid tumor diseases” (priority 2001, published 2005).
